Patent US20250377351A1, “METHOD FOR IDENTIFYING EFFECTIVE TREATMENTS AGAINST NEURODEGENERATIVE DISORDERS” (AcuraStem Incorporated, priority 2018, published 2025)

What was measured:
Format in all cases: cell-based, human
C9-ALS iMN lines = experiment: iMN survival assay (longitudinal tracking, hazard ratio vs DMSO) in C9-ALS lines; conditions: 3 μM, 2 weeks, media change every 3 days, three C9-ALS iMN lines
Protocol: (§1) Daily imaging was performed to collect data at multiple time points over ˜2 weeks, and then analysis of the data enabled single cell longitudinal tracking during the progressive stages of cell death. The hazard ratio (hR) derived from the Cox model is used to indicate the survival rate of neurons, where a ratio greater than 1 indicates a negative association with survival. A P value is also calculated, which functions as a statistical test of the two hazard functions using the Wald test. In addition, a standard deviation, which replicates the hR value, and survival curves are calculated and graphed. […]
(§2) Induced neuron survival assay: Hb9::RFP^+iMNs appeared between days 13-16 after retroviral transduction. […] Neurons were scored as dead when their soma was no longer detectable by RFP fluorescence. All neuron survival assays were performed at least twice, with equal numbers of neurons from three individual replicates from one of the trials being used for the quantification shown. All trials quantified were representative of other trials of the same experiment. […]

sporadic ALS (sALS) iMNs = experiment: iMN survival assay in sporadic ALS lines; conditions: screen hits
Protocol: as §1, §2

[1] = system: healthy control iMN lines; experiment: iMN survival assay in healthy control lines; conditions: 1 μM, 3 weeks, five healthy control lines
Protocol: as §1, §2

ALS patient iMNs = experiment: iMN survival assay in ALS patient motor neurons (line type not specified); conditions: hR vs DMSO
Protocol: as §1, §2

Row | Structure (SMILES) | iMN survival, hazard ratio of treatment vs DMSO (C9-ALS iMN lines) | potency among hit compounds efficacious against sporadic ALS patient iMNs (sporadic ALS (sALS) iMNs) | iMN survival, treatment vs DMSO group [1] | performance in patient motor neurons (hR) of drugs tested in ALS clinical trials (ALS patient iMNs)
1 | Cc1cccc(/C=N/Nc2cc(N3CCOCC3)nc(OCCc3ccccn3)n2)c1 [Apilimod] | significant beneficial effect | among the most potent | No significance difference | 
2 | CC1=NN(c2ccccc2)C(=O)C1 [edaravone] |  |  |  | do best
3 | Nc1nc2ccc(OC(F)(F)F)cc2s1 [riluzole] |  |  |  | do best
